Source: patent US20140296143A1, “Angiotensin-(1-7) As A Chemoprevention Agent” (Wake Forest Innovations, priority 2008, published 2014)

Legend:
[1] = tested on: chorioallantoic membrane (CAM); test: Chorioallantoic membrane (CAM) assay of neovascularization; type: in vivo, chicken
Procedure: Chicken eggs were incubated for four days in constant humidity at 37° C. […] The extent of neovascularization was quantified by counting branch points, as illustrated in FIG. 14 showing about a 50% reduction in branch points. No difference was found in the number of branch points between the two groups prior to treatment with Ang-(1-7).

[2] = tested on: poly(ADP-ribose) polymerase (PARP); test: Cleaved PARP (caspase-3 cleavage product) in serum-stimulated SK-LU-1 cells; type: cell-based, human; conditions: SK-LU-1, 10 nM, 4 to 8 hour treatment
Procedure: Proteins were separated electrophoretically on SDS polyacrylamide gels, transferred to polyvinyl membranes, and incubated with primary antibodies to proteins of interest. Appropriate horseradish peroxidase (HRP)-conjugated second antibodies were added and immunoreactive products visualized using the enhanced chemoluminescence reagents from Amersham. The density of each immunoreactive product was quantified using the MCID imaging system. Antibodies to proteins that participate in cell signaling, apopotosis, and regulation of the cell cycle are commercially available from a variety of sources.
Since caspase-3 is activated during apoptosis, an increase in the generation of its […] can be a measure of apoptosis.

[3] = tested on: A549 human lung tumor xenografts; test: A549 human lung tumor xenograft in athymic mice, intravenous infusion; type: in vivo, mouse
Procedure: For reverse-transcriptase real-time PCR, RNA was isolated from cells or tissue, using the TRIzol reagent (GIBCO Invitrogen Corp., Carlsbad, Calif.), as directed by the manufacturer. The RNA concentration and integrity were assessed using an Agilent 2100 Bioanalyzer with an RNA 6000 nano LabChip (Agilent Technologies, Palo Alto, Calif.). Approximately 1 μg of total RNA was reverse transcribed using avian myeloblastosis virus reverse transcriptase (RT) in a 20 μL mixture containing deoxyribonucleotides, random hexamers and RNase inhibitor in RT buffer. Heating the RT reaction product at 95° C. terminated the reaction. For real-time polymerase chain reaction (PCR), 2 μL of the resultant cDNA was added to TaqMan Universal PCR Master Mix (Applied Biosystems, Foster City, Calif.) with a gene-specific primer/probe set (Applied Biosystems, Foster City, Calif.) and amplification was performed on an ABI 7000 Sequence Detection System. The mixtures were heated at 50° C. for 2 min, at 95° C. for 10 min followed by 40 cycles at 95° C. for 15 sec and 60° C. for 1 min. All reactions were performed in triplicate and 18S ribosomal RNA, amplified using the TaqMan Ribosomal RNA Control Kit (Applied Biosystems), served as an internal control. The results were quantified as Ct values, where Ct is defined as the threshold cycle of PCR at which amplified product is first detected, and expressed as the ratio of target/control (Relative Gene Expression).
Quiescent A549 lung cancer cells or tumor tissue cut into approximately 1-2 mm^2 size pieces were homogenized in phosphate-buffered saline (PBS; 50 mM NaPO4, pH=7.2, 100 mM NaCl). Plasma membranes were isolated by centrifugation and solubilized by boiling in 3% SDS-10% B-mercaptoethanol. PBS was added to the membrane fraction to solubilize the proteins. The protein concentration was measured by a modification of the Lowry method. Solubilized protein (20 μg/well) from saline- and Ang-(1-7)-treated animals were separated by SDS-polyacrylamide gel electrophoresis and transferred to polyvinyl membranes (Amersham Pharmacia, Piscataway, N.J.). Non-specific binding was blocked with 5% blotto (5% evaporated milk, 0.1% Triton X-100 in Tris-buffered saline (TBS; 50 mM Tris-HCl, pH 7.4, 50 mM NaCl). The membranes were incubated with a COX-2 antibody (1:1000; Cayman Chemicals, Ann Arbor, Mich.) followed by a goat anti-rabbit antibody (1:1000; Amersham, Piscataway, N.J.) coupled to horseradish peroxidase. Chemiluminescence reagents were added to visualize the immunoreactive bands, which were quantified by densitometry. An antibody to actin (Sigma, St Louis, Mo.) served as the loading control.
Male or female athymic mice (15-20 g, 2-4 weeks of age, Charles River Laboratory, Wilmington, Mass.) were housed in cages with HEPA-filtered air (12-hour light/dark cycle) and ad libitum access to food and autoclaved water. All procedures complied with the policies of the Wake Forest University Animal Care and Use Committee. Mice were inoculated subcutaneously in the lower left flank with approximately 1.9×10^6 A549 lung cancer cells or ZR-75-1 breast cancer cells suspended in 200 μL of cold Matrigel (BD Biosciences, Bedford, Mass.). […] The mice were anesthetized by inhalation with 1.5% isoflurane. […] The minipumps also contained heparin (25 U/mL) to maintain patency of the catheter. On day 28 of the infusion, the animals were anesthetized with halothane and sacrificed by decapitation. Alternatively, the mice received daily subcutaneous injections of Ang-(1-7) in saline or saline alone.
Tumors were fixed with 4% paraformaldehyde for 24 h and incubated in 70% ethanol for 48 h prior to embedding in paraffin. The embedded tumors were cut into five micron thick sections and stained with hematoxylin and eosin to determine morphology. […]

[4] = tested on: SK-MES-1 lung cancer cells; type: cell-based, human
Procedure: Unless otherwise stated, cells were grown in DMEM with 10% fetal bovine serum (FBS), 100 μg/mL penicillin and 100 units/mL streptomycin in a humidified 37° C. incubator gassed with 5% CO2 and 95% room air. Cells were grown to subconfluence in either 24-well cluster plates or 100 mm dishes and made quiescent by treatment for 48 h with serum-depleted growth media, prior to the experiments outlined below to measure cell growth (^3H-thymidine incorporation), cell signaling or apoptosis.
Subsequently, the cell monolayer was washed with cold phosphate-buffered saline (PBS; 50 mM NaPO4, 120 mM NaCl, pH=7.2). The adherent cells were precipitated with cold 10% TCA (4° C. for 30 min) and dissolved in 0.2% SDS in 0.1 N NaOH. Incorporated ^3H-thymidine was determined by liquid scintillation spectrometry, as previously described (Freeman, E. J. et al., Hypertension, 1996, 28:104-108). Growth inhibition was defined as a reduction in the amount of ^3H-thymidine incorporation as compared to the mitogen-stimulated controls.

[5] = adjuvant therapy for cytopenia during chemotherapy; Rodgers et al., 2005; cited from earlier work
[6] = rats, Strawn 1999, cited from earlier work
EA.hy.926 cells = test: Tube formation of endothelial cells in Matrigel; type: cell-based, human; conditions: over the range of 0.5 to 100 nM
Procedure: These cells are a transformed human endothelial cell line derived from umbilical vein endothelial cells. They retain their endothelial phenotype and were previously used to study angiogenesis.
After a 16 h incubation period to allow tube formation, cultures were photographed and branch points were counted, to quantify tube formation.

ERK1 = conditions: SK-LU-1, 10 nM pretreatment; Gallagher et al., 2004; cited from earlier work
[7] = 24 μg/kg/h intravenous, 28 days, versus saline
[8] = 28 days infusion, versus saline

CC[C@H](C)[C@H](NC(=O)[C@H](Cc1ccc(O)cc1)NC(=O)[C@@H](NC(=O)[C@H](CCCNC(=N)N)NC(=O)[C@@H](N)CC(=O)O)C(C)C)C(=O)N[C@@H](Cc1c[nH]cn1)C(=O)N1CCC[C@H]1C(=O)O [Ang-(1-7), Asp-Arg-Val-Tyr-Ile-His-Pro]
neovascularization, branch points ([1]; 10 nM, 48 hour incubation, n=4, control 58.0±3.6 (n=3)): 29.5±3.6 branch points
reduction in branch points ([1]; 100 nM, 2-day incubation, FIG. 14): ~50%
amount of cleaved PARP [2]: increase
capsular vessel number [3, 7]: no difference
down-regulation in VEGF mRNA in tumor tissue [3, 7]: greater than 50%
reduction in intratumoral vessel formation [3, 7]: > 75%
average tumor volume at end of infusion ([3]; 24 μg/kg/h intravenous, day 28, n=5, saline 326.3±47.2): 84.4±19.8 mm^3
body weight, food and water consumption during infusion ([3]; 24 μg/kg/h, 28 days): maintained their body weight as well as food and water consumption
gross pathology of major organs following sacrifice ([3]; 24 μg/kg/h, 28 days): no gross pathological abnormalities
APAF mRNA in tumor tissue [3, 8]: significant increase
caspase 3 mRNA in tumor tissue [3, 8]: significant increase
COX-2 protein, density of COX-2 immunoreactivity as a function of actin ([3]; Western blot of tumor tissue, n=5, saline 0.99±0.12): 0.41±0.09
tumor weight less than saline-infused ([3]; at sacrifice, day 28): 50%
tumor weight ([3]; at sacrifice, day 28, n=5, saline 0.28±0.03): 0.13 ± 0.01 g
proportion of apoptotic nuclei (cleaved caspase 3) ([3]; intravenous infusion, n=4-5, saline 18.8±9.4%): 75±4.6%
proportion of proliferating cells (Ki67) ([3]; n=5, saline 73±[…]): 49.5±9.4%
reduction of COX-2 protein ([3]; tumor tissue, versus saline): 59%
decrease in COX-2 mRNA ([3]; tumor xenografts, RT real-time PCR, versus saline): 57%
IC50 ([4]; 48 h): 0.4 nM
^3H-thymidine incorporation over time of treatment ([4]; SK-MES-1, 1% FBS, daily addition of 100 nM): progressively reduced
adverse side effects in patients [5]: no adverse side effects
Ang-(1-7) in the circulation ([6]; 24 μg/kg/h intravenous, 12 days, n=6-8, from 0.052±0.005): 0.185 ± 0.046 nM
tolerability: weight, blood pressure, heart rate ([6]; 24 μg/kg/hr): no change in weight, blood pressure, or heart rate
inhibition of tube formation (EA.hy.926 cells): dose-dependent inhibition
reduction of serum-stimulated phosphorylation of ERK1 (ERK1): 61%
